The source of these data is a melting point compilation (Tetko et al.; mined from patent text by program, amines drawn as free bases though some values may be those of a salt).

In the case of `CC(C)(C(=O)O)n1c(=O)[nH]c2cc(F)c(F)cc2c1=O`, the melting point lay in the range of 242 to 244 °C. The figure for `CCOC(=O)C=Cc1cc(OC)c(OCc2ccccc2)c(OC)c1` is 68 to 69 °C; for `Cc1ccc(F)cc1C1CC(=O)c2c(C)cnnc2C1` (stereo unspecified) it is 127 to 128 °C; for `CC(C)(C)c1ccc(C(=O)NCc2ccc3c(c2)CN(C2CCC(=O)NC2=O)C3=O)cc1` (stereo unspecified) it is 238 to 240 °C. With `COc1cc(CNC(c2ccccc2)c2ccccc2)ccc1O`, the melting point fell in the range of 115 to 118 °C. The figure for `CCON=C(C(C)=NOCc1ccccc1C(=COC)C(=O)OC)c1ccc(OC(C)c2ccc(Cl)cc2)cc1` (stereo unspecified) is 107 to 109 °C; for `Cc1cccc(-c2ccc(NC(=O)Nc3ccc(Oc4cc(N)ncn4)cc3)cc2C(F)(F)F)n1` it is 130 to 133 °C; for `c1ccc2c3c([nH]c2c1)C(c1ccc2c(c1)OCO2)NCC3` (stereo unspecified) it is 173 °C. The figure for `CN(C(=O)Oc1cccc2c1OC(C)(C)C2)C(=O)N1CCCCC1` is 98 to 100 °C.

Compound `CC(C)c1ccc(-c2c(Cl)ncnc2Cl)cc1` yielded a melting point of 69 to 70 °C. In turn, `CC(Sc1nc(Cl)cc(NCc2ccc(Cl)cc2)n1)C(=O)O` (stereo unspecified) yielded a melting point of 133 to 136 °C. In turn, `O=C(N[C@H](Cc1ccc(C(F)(F)F)cc1)[C@@H](O)c1ccccc1F)c1ccc(F)c2ccccc12` (racemic) returned a melting point of 190 to 191 °C.

As for `CCCN1CCn2c(=S)[nH]c3cccc(c32)C1C` (stereo unspecified), the melting point worked out at 179 °C. The figure for `COc1ccc(N2CCN(c3c(C)c(C)c4c(c3C)CC(C)(C)O4)CC2)cc1` is 152 to 155 °C; for `OCCCc1ccccc1N(Cc1ccccc1)Cc1ccccc1` it is 71.5 to 73 °C; for `C[C@H](C(=O)NC[C@H](COC(=O)C(C)(C)C)Cc1ccccc1)c1ccc(NS(C)(=O)=O)c(F)c1` it is 40 to 42 °C. Consider `Cc1nc(-n2cc(C(=O)Nc3ccccc3)ccc2=O)sc1C(=O)NCc1ccccc1`, for which the melting point fell in the range of 223 to 225 °C. `CCOC(=O)c1[nH]nnc1Nc1ccccc1` came in with a melting point of 129 to 130 °C. The figure for `O=C(Nc1cccc(C(=O)O)c1)Oc1ccccc1` is 131 to 133 °C; for `CC(C)(C)OC(=O)Nc1cc(OCc2ccccc2)c2ccc(C#N)cc2c1` it is 145 °C; for `CCN1c2ncccc2C(OS(C)(=O)=O)Nc2c(C)cc(C)nc21` (stereo unspecified) it is 154 to 155 °C. The figure for `CSc1sc(C(N)=O)c2c1-c1sc(C(N)=O)cc1CC2` is > 300 °C; for `CCN(CC)CCNC(=O)c1cc(Cl)c(N)cc1OCCCN` it is 119 to 121 °C; for `CC(C(=O)O)C1CC(=O)N(c2ccc(Cl)cc2)C1` (stereo unspecified) it is 63 to 67 °C.

Consider `CCOC(=O)c1cn(C2CC2)c2c(F)c(F)c(F)c(N)c2c1=O`, for which the melting point lay in the range of 223 to 225 °C. The figure for `N#Cc1ccc(C(=O)[C@H]2C[C@H]2C(=O)O)cc1` (relative stereo) is 180 to 182 °C; for `O=C(NCc1ccc(Cl)cc1)c1cnc2c(OCCO)cc(CCCO)cc2c1O` it is 250 to 252 °C. Compound `CC(=O)OCCN1CC(c2ccccc2)NC1=O` (stereo unspecified) gave a melting point of 88 to 90 °C. The figure for `CC(=O)c1ccc2c(c1)C(C)c1cc(C(C)=O)ccc1-2` is 128 to 129 °C; for `NC(=O)c1c(-c2ccc(Cl)cc2)csc1N` it is 150 to 151 °C; for `Cc1cc(C#N)cc(C(=O)Nc2ccc(C#N)cn2)n1` it is 279 °C.

As for `CCCNC(=O)n1c(=O)cc2n1C(c1cccc([N+](=O)[O-])c1)C(C(=O)OC(C)C)=C(C)N2` (stereo unspecified), the melting point was in the range of 160 to 163 °C. Compound `CC(c1ccc(C(F)(F)F)nc1)S(C)=NC#N` (stereo unspecified) showed a melting point of 78 to 80 °C. `Nc1c(I)cc(Cl)cc1I` returned a melting point of 127 to 129 °C.

As to `N=C(Nc1ccccc1)N1CCC1`, the melting point was in the range of 116 to 119 °C. On to `CS(=O)(=O)c1ccc(-n2cncc2-c2ccc(Cl)cc2)cc1`, for which the melting point fell in the range of 192 to 193 °C. The figure for `COC(=O)c1ccc2c(c1)S(=O)(=O)NCN2C1CC1` is 178 to 180 °C; for `COC(=O)C=Cc1cnc(C(=O)OC)cc1C(=O)OC` it is 126 to 128 °C.

As to `CCCCCc1ccc(C(=O)NC2N=C(c3ccccc3)c3ccccc3NC2=O)cc1` (racemic), the melting point fell in the range of 203 to 205 °C. The figure for `CCCCCCCCCCCCNC(=O)C(CC(=O)O)Sc1nc2ccccc2s1` (stereo unspecified) is 117 to 121 °C. The compound `COc1ccc(Nc2nc(Cl)nc(Nc3ccc(OC)c(F)c3)n2)cc1F` displayed a melting point of 194 °C.

As for `O=C(Nc1ccc(F)c(F)c1)c1cc(-c2ccc(F)cc2F)ccc1O`, the melting point was 231 to 232 °C. Regarding `O=C(Nc1ccc(Cl)c(C(F)(F)F)c1)Oc1ccc2c(c1)CCCN2`, the melting point was 150 °C. The figure for `OC(c1ccccc1)C1CCN(CCCc2ccccc2)CC1` (stereo unspecified) is 87 to 88 °C.

On to `COCCc1nc2c(N)nc3ccccc3c2n1CCOCCN(C)S(=O)(=O)C(C)C`, for which the melting point came to 130 °C.

Take `CCOC(=O)c1cccc(-c2c(C)c(NC(=O)CC(C)(C)C)c(C)c3c2OCC3c2ccc(C(C)C)cc2)c1` (stereo unspecified): the melting point was 175 to 177 °C. The figure for `CC(C)(SC(F)(F)F)C(=O)C(Oc1ccc(Cl)cc1)n1cncn1` (stereo unspecified) is 66 °C; for `CCOC(=O)C(Br)C(=O)Nc1ccccc1` (racemic) it is 90 °C; for `Cc1noc(CN2CCC[C@@H](OCc3cc(C(F)(F)F)cc(C(F)(F)F)c3)[C@H]2c2ccccc2)n1` (relative stereo) it is 85 to 86 °C. The figure for `CC(=O)OC1CCC2(C)C3=CCC4(C)C(C(C)=O)CCC4C3CCC2C1` (stereo unspecified) is 163 to 165 °C; for `CCC(=O)Nc1nnc2c3c(c(N4CCOCC4)nn12)CCCC3` it is 164 to 166 °C; for `Cc1ccc(C)n1-c1ccc(Br)cn1` it is 69 °C. The figure for `BrCc1ccc(CBr)c(Br)c1` is 90 to 91 °C. For `COc1ccc(N(C)CCCOc2ccc3ccccc3c2)cc1`, the melting point stood at 112 °C. The figure for `CC1(C)Cc2c(c(N3CCCC3)nc3sc4c(NCc5ccncc5)ncnc4c23)CO1` is 228 to 229 °C. In turn, `C[C@@H]1CN(c2ncc(Cl)cc2Cl)CCN1c1nc2c(Br)cc(C(F)(F)F)cc2[nH]1` returned a melting point of 135 to 137 °C.

As for `OCc1ccc(Cn2c(NC3CCN(CC(O)COc4ccc(F)cc4)CC3)nc3ccccc32)o1` (stereo unspecified), the melting point stood at 137 °C. For the compound `CCN(CC)CCC(=O)Nc1ccc([N+](=O)[O-])cc1`, the melting point is 86 to 88 °C.

Turning to `CC(C)(C)OC(=O)NCCCc1ccccc1O`, the melting point lay in the range of 75 to 77 °C.

The compound `COC(=O)c1nc(Br)cc(N=[N+]=[N-])c1Cl` had a melting point of 84 to 86 °C. Consider `CC1(C)CCc2ccc(OCCCCN3CCN(c4cccc(Cl)c4Cl)CC3)cc2NC1=O`, for which the melting point fell in the range of 110 to 112 °C. The figure for `CC(C)(C)c1cc(N2CCCCC2=O)cc(C(C)(C)C)c1O` is 212 to 214 °C.

Turning to `COC(=O)CCC/C=C\[C@@H]1C[C@@H](NS(=O)(=O)c2ccc(Cl)cc2)CN1S(=O)(=O)c1ccc(Cl)cc1`, the melting point lay within 95 to 96 °C. Take `CN1CCCC1=NC(=O)Nc1ccc(Br)cc1`: the melting point was 134 to 136 °C. The figure for `COC(=O)C(Cc1ccc(OCc2nc3ccc(OC)cc3n2C)cc1)NS(C)(=O)=O` (stereo unspecified) is 168 to 171 °C. The figure for `N#CCOc1ccc(-c2ccccc2)cc1` is 81 to 83 °C; for `CNc1nc2ccccc2n1CCOS(C)(=O)=O` it is 48 to 50 °C; for `COc1ccc(NC(=O)C2CCCCn3c2nc(-c2ccncn2)cc3=O)c(OC)n1` (racemic) it is 231 to 233 °C. The figure for `Cc1cccc(Nc2cc(Nc3ccc(OCC(O)CN(C)C)cc3)ncn2)c1` (stereo unspecified) is 192 to 195 °C; for `C[C@H]1C(=O)NC2CCC(=O)N21` (stereo partly specified) it is 84 to 86 °C; for `CC(C)=Cc1c(C)nc(C)c(CO)c1-c1ccccc1` it is 48 to 50 °C. The compound `COc1cccc2c1nc(C(F)F)n2-c1nc(Nc2ccncn2)nc(N2CCOCC2)n1` displayed a melting point of 234 to 236 °C. `CC(=O)NC(NC(=O)c1cc(C)cc(C)c1)C(N)=O` (stereo unspecified) yielded a melting point of 244 to 245 °C. `Cc1nn(C)c(C#N)c1[N+](=O)[O-]` gave a melting point of 96 to 98 °C. `COc1ccc(C=O)cc1C` gave a melting point of 120 °C. The figure for `CCCCCCN(C[C@@H]1CCCC[C@H]1CN(CCCCCC)C(=O)Nc1ccc(N(C)C)cc1)C(=O)Nc1ccc(N(C)C)cc1` (relative stereo) is 112 to 117 °C. In turn, `COc1ccc(Sc2sccc2C=O)cc1` had a melting point of 58 to 60 °C. The figure for `CN(C)C=CC(=O)c1cccc(N(C)C(=O)C2CC2)c1` is 120 to 122 °C; for `Fc1ccccc1N1CCN(Cc2cn3cc(Cl)ccc3n2)CC1` it is 107 to 108 °C. The figure for `Cc1ccc(S(=O)(=O)N2Cc3sccc3-n3cccc3C2)cc1` is 165 °C; for `CC1C(=O)N(c2ccccc2)c2ccccc21` (stereo unspecified) it is 77 to 78 °C; for `Cc1ccc2c(OCCCl)c3ccccc3c(OCCCl)c2c1` it is 82 to 85 °C. Consider `O=C1CN(c2ccccc2)C(=O)N1C(=O)c1cccc(Oc2ccccc2)c1`, for which the melting point was in the range of 157 to 158 °C. The figure for `Cc1cc(C)n(-c2nc(Nc3ccc(Cl)cc3)c3ccccc3n2)n1` is 209 to 211 °C; for `Cc1ccc(=NC(=O)C(F)(F)F)n(-c2cccc(C(F)(F)F)c2)c1` it is 115 °C. The figure for `CCOC(=O)c1sc2cc(CO)ccc2c1Sc1cccc(OC)c1` is 110 to 112 °C; for `Nc1nc2c(s1)CCN(C(=O)c1ccc(NC(=O)c3ccccc3-c3ccccc3)cc1)c1ccccc1-2` it is > 250 °C.

`C[C@@H]1CCCN1CCCOc1ccc(C(=O)Cc2ccccn2)cc1` came in with a melting point of 40 to 42 °C.

In turn, `CCCNS(=O)(=O)c1cc(C(=O)CBr)ccc1Cl` displayed a melting point of 96 °C. For the compound `COc1ccc(C(O)CNCCc2ccc(OC)c(OC)c2C)cc1` (stereo unspecified), the melting point lay within 128 to 129 °C. On to `O=C(O)c1cc(-c2ccccc2)c2sccc2c1`, for which the melting point turned out to be 234 °C.

In general, melting point refers to the temperature of the solid-liquid transition.
